IC50 data for ten compounds are collected here from US20240293558A1, “KRAS INHIBITOR CONJUGATES” (Erasca, Inc., priority 2021, published 2024).

Each structure is given as a SMILES string. Like-named read-outs stand apart in the source and are kept apart here.

The target of one assay is T1, KRAS (WT) (Homo sapiens, UniProt P01116).
T1 construct: Biotinylated KRAS protein amino acids 1-169 (produced at Erasca); made in house
The assay can be described thus: In-vitro RAS-RAF binding assay (RRB), HTRF/FRET. Format: biochemical. Particulars: read-out: Inhibition of RAS-RAF Binding (in-vitro) KRAS (WT) IC50. Here is the method:
(§1) Biotinylated KRAS protein amino acids 1-169 (produced at […]) is labeled with streptavidin-terbium (lanthanide cryptate donor fluorophore) in assay buffer (50 mM HEPES, pH 7.5, 100 mM NaCl, 1 mM MgCl2, 1 mM DTT) at a final concentration of 30 nM. In a separate reaction mixture, 30 nM cRAF (RBD) (Abcam, Cambridge MA) is labeled with anti-GST d2 (acceptor fluorophore). Labeling reactions are incubated for 1 hour at room temperature. […] Following the compound incubation, SOS1 catalytic domain (produced at […]) and GTPgS are added to the reaction to initiate nucleotide exchange (60 minutes exchange reaction). Once in the GTP state KRAS will bind to cRAF. No binding will occur if KRAS remains in the GDP state. Compounds may block nucleotide exchange or may create a steric obstruction to cRAF-KRAS interaction by binding to the RAS effector site. […] A portion of this mixture is transferred to a white 384-well plate (20 uL per well in duplicate) and read on an HTRF compatible plate reader (ClarioSTAR). Fluorescent resonance energy transfer (FRET) is measured at equilibrium. FRET signal will be high if KRAS-cRAF binding occurs. FRET signal will be low if KRAS-cRAF binding is inhibited by the test compound. Table 2 represents the average of multiple runs of each compound.
On the technique in general: In TR-FRET formats the signal depends on donor and acceptor labels being close together.

Another assay addresses KRAS G12D (Homo sapiens, UniProt P01116, G12D). The assay can be described thus: In-vitro RAS-RAF binding assay (RRB), HTRF/FRET. Also noted: Biotinylated KRAS protein amino acids 1-169 (produced at Erasca); made in house. Format: biochemical. Particulars: read-out: Inhibition of RAS-RAF Binding (in-vitro) KRAS (G12D) IC50. The protocol:
as §1

The mark [1] stands for this setting: Table 2, average of multiple runs of each compound.

T1 sequence (P01116 1-169 isoform P01116-2): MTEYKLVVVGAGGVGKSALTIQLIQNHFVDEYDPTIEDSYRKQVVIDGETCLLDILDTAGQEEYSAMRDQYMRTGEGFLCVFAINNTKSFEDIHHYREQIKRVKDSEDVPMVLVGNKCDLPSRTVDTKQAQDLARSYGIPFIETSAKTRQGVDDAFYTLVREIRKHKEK
KRAS G12D, sequence (P01116 1-169 isoform P01116-2 G12D): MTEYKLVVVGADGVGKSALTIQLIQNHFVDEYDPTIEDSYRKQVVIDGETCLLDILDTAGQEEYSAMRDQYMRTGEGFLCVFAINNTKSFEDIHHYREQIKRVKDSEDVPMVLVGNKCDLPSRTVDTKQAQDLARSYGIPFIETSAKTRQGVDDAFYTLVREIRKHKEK

`Cc1ncsc1-c1ccc([C@H](CO)NC(=O)[C@@H]2C[C@@H](O)CN2C(=O)[C@@H](NC(=O)CCCCN2CCC[C@H]2COc2nc(N3CC4CCC(C3)N4)c3cc(Cl)c(-c4ccc(F)c5sc(N)c(C#N)c45)c(F)c3n2)C(C)(C)C)cc1` [Example 88, (2S,4R)-1-((2S)-2-(5-((2S)-2-(((7-(2-amino-3-cyano-7-fluorobenzo[b]thiophen-4-yl)-4-(3,8-diazabicyclo[3.2.1]octan-3-yl)-6-chloro-8-fluoroquinazolin-2-yl)oxy)methyl)pyrrolidin-1-yl)pentanamido)-3,3-dimethylbutanoyl)-4-hydroxy-N-((R)-2-hydroxy-1-(4-(4-methylthiazol-5-yl)phenyl)ethyl)pyrrolidine-2-carboxamide]: the half-inhibitory concentration (IC50) – broadly, the concentration at which inhibition is half-maximal – came to 0.0633 µM on KRAS (WT) (setting [1]) and 0.0163 µM on KRAS G12D (setting [1]).

In the case of `Cc1ncsc1-c1ccc([C@H](C)NC(=O)[C@@H]2C[C@@H](O)CN2C(=O)[C@@H](NC(=O)CCCCN2CCC[C@H]2COc2nc(N3CC4CCC(C3)N4)c3cc(C(F)(F)F)c(-c4ccc(F)c5sc(N)c(C#N)c45)c(F)c3n2)C(C)(C)C)cc1` [Example 90, (2S,4R)-1-((2S)-2-(5-((2S)-2-(((7-(2-amino-3-cyano-7-fluorobenzo[b]thiophen-4-yl)-4-(3,8-diazabicyclo[3.2.1]octan-3-yl)-8-fluoro-6-(trifluoromethyl)quinazolin-2-yl)oxy)methyl)pyrrolidin-1-yl)pentanamido)-3,3-dimethylbutanoyl)-4-hydroxy-N-((S)-1-(4-(4-methylthiazol-5-yl)phenyl)ethyl)pyrrolidine-2-carboxamide], the concentration for half-maximal inhibition (IC50) at KRAS (WT) (setting [1]) turned out to be 0.043 µM; on KRAS G12D (setting [1]) it was 0.013 µM.

With `C#Cc1c(F)ccc2cc(O)cc(-c3ncc4c(N5CC6CCC(C5)N6)nc(OCCN5CCC(COc6cc([C@H](C(=O)N7C[C@H](O)C[C@H]7C(=O)N[C@@H](C)c7ccc(-c8c(F)cc(F)cc8F)cc7)C(C)C)on6)CC5)nc4c3F)c12` [Example 63, (2S,4R)-1-((2R)-2-(3-((1-(2-((4-(3,8-diazabicyclo[3.2.1]octan-3-yl)-7-(8-ethynyl-7-fluoro-3-hydroxynaphthalen-1-yl)-8-fluoropyrido[4,3-d]pyrimidin-2-yl)oxy)ethyl)piperidin-4-yl)methoxy)isoxazol-5-yl)-3-methylbutanoyl)-4-hydroxy-N-((S)-1-(2′,4′,6′-trifluoro-[1,1′-biphenyl]-4-yl)ethyl)pyrrolidine-2-carboxamide], the half-maximal inhibitory concentration (IC50) at KRAS (WT) (setting [1]) was determined as 8.33 µM; at KRAS G12D (setting [1]) it was 0.0106 µM.

Take `Cc1ncsc1-c1ccc([C@H](C)NC(=O)[C@@H]2C[C@@H](O)CN2C(=O)[C@@H](NC(=O)CCCCN2CCC[C@H]2COc2nc(N3CC4CCC(C3)N4)c3cc(Cl)c(-c4ccc(F)c5sc(N)c(C#N)c45)c(F)c3n2)C(C)(C)C)cc1` [Example 89, (2S,4R)-1-((2S)-2-(5-((2S)-2-(((7-(2-amino-3-cyano-7-fluorobenzo[b]thiophen-4-yl)-4-(3,8-diazabicyclo[3.2.1]octan-3-yl)-6-chloro-8-fluoroquinazolin-2-yl)oxy)methyl)pyrrolidin-1-yl)pentanamido)-3,3-dimethylbutanoyl)-4-hydroxy-N-((S)-1-(4-(4-methylthiazol-5-yl)phenyl)ethyl)pyrrolidine-2-carboxamide]: the values for the half-inhibitory concentration (IC50) at KRAS (WT) (setting [1]) and on KRAS G12D (setting [1]) were 0.0658 µM and 0.0152 µM, respectively.

Regarding `C#Cc1c(F)ccc2cc(O)cc(-c3ncc4c(N5CC6CCC(C5)N6)nc(OC[C@@H]5CCCN5CCCOCCC(=O)N[C@H](C(=O)N5C[C@H](O)C[C@H]5C(=O)N[C@@H](C)c5ccc(-c6c(F)ccc(F)c6F)cc5)C(C)(C)C)nc4c3F)c12` [Example 44, (2S,4R)-1-((2S)-2-(3-(3-((2S)-2-(((4-(3,8-diazabicyclo[3.2.1]octan-3-yl)-7-(8-ethynyl-7-fluoro-3-hydroxynaphthalen-1-yl)-8-fluoropyrido[4,3-d]pyrimidin-2-yl)oxy)methyl)pyrrolidin-1-yl)propoxy)propanamido)-3,3-dimethylbutanoyl)-4-hydroxy-N-((S)-1-(2′,3′,6′-trifluoro-[1,1′-biphenyl]-4-yl)ethyl)pyrrolidine-2-carboxamide], the IC50 was determined as 0.0343 µM on KRAS (WT) (setting [1]) and 0.00892 µM on KRAS G12D (setting [1]).

As for `Cc1cc(N)nc(-c2c(Cl)cc3c(N4CC5CCC(C4)N5)nc(OC[C@@H]4CCCN4CCCOCCCOc4cc(-c5scnc5C)ccc4CNC(=O)[C@@H]4C[C@@H](O)CN4C(=O)[C@H](NC(=O)C4(F)CC4)C(C)(C)C)nc3c2F)c1C(F)(F)F` [Example 3, (2S,4R)—N-[[2-[3-[3-[(2S)-2-[[7-[6-amino-4-methyl-3-(trifluoromethyl)-2-pyridyl]-6-chloro-4-(3,8-diazabicyclo[3.2.1]octan-3-yl)-8-fluoro-quinazolin-2-yl]oxymethyl]pyrrolidin-1-yl]propoxy]propoxy]-4-(4-methylthiazol-5-yl)phenyl]methyl]-1-[(2R)-2-[(1-fluorocyclopropanecarbonyl)amino]-3,3-dimethyl-butanoyl]-4-hydroxy-pyrrolidine-2-carboxamide], the 50% inhibitory concentration (IC50) at KRAS (WT) (Table 1) was over 10 µM; on KRAS (WT) (setting [1]), over 10 µM; on KRAS G12D (Table 1), 0.064 µM; at KRAS G12D (setting [1]) it was 0.0643 µM.

`C#Cc1c(F)ccc2cc(O)cc(-c3ncc4c(N5CC6CCC(C5)N6)nc(OC[C@@H]5CCCN5CCCOCCC(=O)N[C@H](C(=O)N5C[C@H](O)C[C@H]5C(=O)N[C@@H](C)c5ccc(-c6ccc(F)c(F)c6F)cc5)C(C)(C)C)nc4c3F)c12` [Example 55, (2S,4R)-1-((2S)-2-(3-(3-((2S)-2-(((4-(3,8-diazabicyclo[3.2.1]octan-3-yl)-7-(8-ethynyl-7-fluoro-3-hydroxynaphthalen-1-yl)-8-fluoropyrido[4,3-d]pyrimidin-2-yl)oxy)methyl)pyrrolidin-1-yl)propoxy)propanamido)-3,3-dimethylbutanoyl)-4-hydroxy-N-((S)-1-(2′,3′,4′-trifluoro-[1,1′-biphenyl]-4-yl)ethyl)pyrrolidine-2-carboxamide]: the IC50 came out at 0.067 µM on KRAS (WT) (setting [1]) and 0.00979 µM on KRAS G12D (setting [1]).

`C#Cc1c(F)ccc2cc(O)cc(-c3ncc4c(N5CC6CCC(C5)N6)nc(OCCN5CCC(F)(COc6cc([C@H](C(=O)N7C[C@H](O)C[C@H]7C(=O)N[C@@H](C)c7ccc(-c8c(F)cc(F)cc8F)cc7)C(C)C)on6)CC5)nc4c3F)c12` [Example 65, (2S,4R)-1-((2R)-2-(3-((1-(2-((4-(3,8-diazabicyclo[3.2.1]octan-3-yl)-7-(8-ethynyl-7-fluoro-3-hydroxynaphthalen-1-yl)-8-fluoropyrido[4,3-d]pyrimidin-2-yl)oxy)ethyl)-4-fluoropiperidin-4-yl)methoxy)isoxazol-5-yl)-3-methylbutanoyl)-4-hydroxy-N-((S)-1-(2′,4′,6′-trifluoro-[1,1′-biphenyl]-4-yl)ethyl)pyrrolidine-2-carboxamide]: the IC50 at KRAS (WT) (setting [1]) was over 10 µM; at KRAS G12D (setting [1]), 0.0111 µM.

For `Cc1cc(N)nc(-c2c(Cl)cc3c(N4CC5CCC(C4)N5)nc(OC[C@@H]4CCCN4CCCCCCCN4CCC(c5cc(F)cc6c5CN(C5CCC(=O)NC5=O)C6=O)CC4)nc3c2F)c1C(F)(F)F` (stereo partly drawn) [Example 5, 3-[4-[1-[7-[(2S)-2-[[7-[6-amino-4-methyl-3-(trifluoromethyl)-2-pyridyl]-6-chloro-4-(3,8-diazabicyclo[3.2.1]octan-3-yl)-8-fluoro-quinazolin-2-yl]oxymethyl]pyrrolidin-1-yl]heptyl]-4-piperidyl]-6-fluoro-1-oxo-isoindolin-2-yl]piperidine-2,6-dione], the half-inhibitory concentration (IC50) on KRAS (WT) (Table 1) came out at 2.44 µM; on KRAS (WT) (setting [1]), 4.92 µM; at KRAS G12D (Table 1) it was 0.019 µM; at KRAS G12D (setting [1]), 0.0188 µM.

As to `C#Cc1c(F)ccc2cc(O)cc(-c3ncc4c(N5CC6CCC(C5)N6)nc(OC[C@@H]5CCCN5CCCOCCC(=O)N[C@H](C(=O)N5C[C@H](O)C[C@H]5C(=O)N[C@@H](C)c5ccc(-c6c(F)cccc6C(F)(F)F)cc5)C(C)(C)C)nc4c3F)c12` [Example 43, (2S,4R)-1-((2S)-2-(3-(3-((2S)-2-(((4-(3,8-diazabicyclo[3.2.1]octan-3-yl)-7-(8-ethynyl-7-fluoro-3-hydroxynaphthalen-1-yl)-8-fluoropyrido[4,3-d]pyrimidin-2-yl)oxy)methyl)pyrrolidin-1-yl)propoxy)propanamido)-3,3-dimethylbutanoyl)-N-((S)-1-(2′-fluoro-6′-(trifluoromethyl)-[1,1′-biphenyl]-4-yl)ethyl)-4-hydroxypyrrolidine-2-carboxamide], the IC50 at KRAS (WT) (setting [1]) was 0.0383 µM; at KRAS G12D (setting [1]) it was 0.00768 µM.
